Measured values as given in ChEMBL document CHEMBL1147449, “Synthesis of analogues of a potent antitumor saponin OSW-1” (Bioorg Med Chem Lett, 2004).

Assays:
Conditions in all cases: Homo sapiens
MCF7 [1] = assay: Cytotoxicity (growth inhibition) against breast cancer MCF-7 cell line at 10E-6 mol/L; format: functional
MCF7 [2] = assay: Inhibition of the necrosis induced by compound in breast cancer MCF-7 cell line; format: functional, cell-based
MCF7 [3] = assay: Cytotoxicity (growth inhibition) against breast cancer MCF-7 cell line at 10E-8 mol/L; format: functional
MDA-MB-231 [4] = assay: Cytotoxicity (growth inhibition) against breast cancer MDAMB-231 cell line at 10E-6 mol/L; format: functional
MDA-MB-231 [5] = assay: Cytotoxicity (growth inhibition) against breast cancer MDAMB-231 cell line at 10E-7 mol/L; format: functional
Ishikawa [6] = assay: Cytotoxicity (growth inhibition) against endometrial cancer ishikawa cell line at 10E-7 mol/L after 24 hr; format: functional
Ishikawa [7] = assay: Inhibition of the necrosis induced by compound in endometrial cancer ishikawa cell line after 24 hr; format: functional, cell-based
Ishikawa [8] = assay: Cytotoxicity (growth inhibition) against endometrial cancer ishikawa cell line at 10E-8 mol/L after 24 hr; format: functional
MCF7 [9] = assay: Cytotoxicity (growth inhibition) against breast cancer MCF-7 cell line at 10E-7 mol/L; format: functional
MCF7 [10] = assay: Cytotoxicity (growth inhibition) against breast cancer MCF-7 cell line at 10E-9 mol/L; format: functional
Ishikawa [11] = assay: Cytotoxicity (growth inhibition) against endometrial cancer ishikawa cell line at 10E-5 mol/L after 24 hr; format: functional
MDA-MB-231 [12] = assay: Cytotoxicity (growth inhibition) against breast cancer MDAMB-231 cell line at 10E-9 mol/L; format: functional
MDA-MB-231 [13] = assay: Cytotoxicity (growth inhibition) against breast cancer MDAMB-231 cell line at 10E-8 mol/L; format: functional
MCF7 [14] = assay: Cytotoxicity (growth inhibition) against breast cancer MCF-7 cell line at 10E-5 mol/L; format: functional
Ishikawa [15] = assay: Cytotoxicity (growth inhibition) against endometrial cancer ishikawa cell line at 10E-6 mol/L after 24 hr; format: functional
MDA-MB-231 [16] = assay: Cytotoxicity (growth inhibition) against breast cancer MDAMB-231 cell line at 10E-5 mol/L; format: functional
MDA-MB-231 [17] = assay: Inhibition of the necrosis induced by compound in breast cancer MDAMB-231 cell line; format: functional, cell-based
Ishikawa [18] = assay: Cytotoxicity (growth inhibition) against endometrial cancer ishikawa cell line at 10E-9 mol/L after 24 hr; format: functional

COc1ccc(C(=O)O[C@H]2[C@H](O[C@@H]3[C@@H](OC(C)=O)[C@H](O[C@H]4C[C@H]5[C@@H]6CC=C7C[C@@H](O)CC[C@]7(C)[C@H]6CC[C@]5(C)[C@@]4(O)[C@H](C)C(=O)CCC(C)C)OC[C@@H]3O)OC[C@@H](O)[C@@H]2O)cc1
inhibition at 1 µM (MCF7 [1]): 100% | IC50 (MCF7 [2]): 7000 nM | inhibition at 0.01 µM (MCF7 [3]): 100% | inhibition at 1 µM (MDA-MB-231 [4]): 100% | inhibition at 0.1 µM (MDA-MB-231 [5]): 100% | inhibition at 0.1 µM (Ishikawa [6]): 100% | IC50 (Ishikawa [7]): 3000 nM | inhibition at 0.01 µM (Ishikawa [8]): 100% | inhibition at 0.1 µM (MCF7 [9]): 100% | inhibition at 0.001 µM (MCF7 [10]): 87% | inhibition at 10 µM (Ishikawa [11]): 100% | inhibition at 0.001 µM (MDA-MB-231 [12]): 100% | inhibition at 0.01 µM (MDA-MB-231 [13]): 100% | inhibition at 10 µM (MCF7 [14]): 100% | inhibition at 1 µM (Ishikawa [15]): 100% | inhibition at 10 µM (MDA-MB-231 [16]): 100% | IC50 (MDA-MB-231 [17]): 500 nM | inhibition at 0.001 µM (Ishikawa [18]): 95%
